Experimental data reported in patent publication US11903387B2 (priority 2016, dated 2024).
Values joined by “and” are separate entries in the source; they are usually repeats but may differ in a detail not shown here. Equal values may be shown once. Read-outs that look alike come from different tables or passages of the source.

Tests used:
[1] = system: Pseudoperonospora cubensis; test: Test 2: control effect against cucumber downy mildew; assay type: in vivo
Phytophthora infestans = test: whole plant or invertebrate; assay type: in vivo; conditions: for Test 1 preventive value, Measured: applied alone
[2] = Pseudoperonospora cubensis, applied alone, 10 ppm, read-out: Test 2 preventive value, Measured
[3] = Pseudoperonospora cubensis, applied alone, 50 ppm, read-out: Test 2 preventive value, Measured
[4] = Pseudoperonospora cubensis, applied alone, read-out: Test 2 preventive value, Measured
[5] = Phytophthora infestans, in Solanum lycopersicum, read-out: Test 1 preventive value, Measured, applied alone, 50 ppm

Question: How did the pest or weed control at 10 ppm [1, 2] turn out when `COC(=O)NCc1cc(/C(C)=N/OCc2cccc(C)n2)ccc1Cl` [Pyribencarb] was run?
Answer: 0%

Question: And the pest or weed control at 50 ppm [1, 3]?
Answer: 0%

Question: What about the pest or weed control at 250 ppm [1, 4] of the same molecule?
Answer: 10%

Question: And the pest or weed control at 10 ppm (Phytophthora infestans; Phytophthora infestans, in Solanum lycopersicum, read-out: Test 1 preventive value, Measured, applied alone, 10 ppm)?
Answer: 8.3%

Question: What about the pest or weed control at 50 ppm (Phytophthora infestans; [5]) of the same molecule?
Answer: 11.7%

Question: What about the pest or weed control at 250 ppm (Phytophthora infestans; Phytophthora infestans, in Solanum lycopersicum, read-out: Test 1 preventive value, Measured, applied alone, 250 ppm) of the same molecule?
Answer: 23.3%

Question: How did the pest or weed control at 200 ppm ([1]; Pseudoperonospora cubensis, component (b) alone 200 ppm, read-out: Test 2 Measured) turn out when `CCCOC(=O)NCCCN(C)C` [Propamocarb] was run?
Answer: 45%

Question: What about the pest or weed control at 1000 ppm ([1]; Pseudoperonospora cubensis, component (b) alone 1000 ppm, read-out: Test 2 Measured) of the same molecule?
Answer: 97.5%

Question: What about the pest or weed control at 5000 ppm ([1]; Pseudoperonospora cubensis, component (b) alone 5000 ppm, read-out: Test 2 Measured) of the same molecule?
Answer: 81.5%

Question: What about the pest or weed control at 200 ppm (Phytophthora infestans; Phytophthora infestans, in Solanum lycopersicum, read-out: Test 1 Measured, component (b) alone 200 ppm) of the same molecule?
Answer: 5%

Question: What about the pest or weed control at 1000 ppm (Phytophthora infestans; Phytophthora infestans, in Solanum lycopersicum, read-out: Test 1 Measured, component (b) alone 1000 ppm) of the same molecule?
Answer: 21.7%

Question: What about the pest or weed control at 5000 ppm (Phytophthora infestans; Phytophthora infestans, in Solanum lycopersicum, read-out: Test 1 Measured, component (b) alone 5000 ppm) of the same molecule?
Answer: 48.3%

Question: `CON=C(C(=O)OC)c1ccccc1CON=C(C)c1cccc(C(F)(F)F)c1` [Trifloxystrobin] was tested. Which pest or weed control at 10 ppm [1, 2] did it give?
Answer: 0%

Question: What about the pest or weed control at 50 ppm [1, 3] of the same molecule?
Answer: 0%

Question: And the pest or weed control at 250 ppm [1, 4]?
Answer: 0%

Question: And the pest or weed control at 50 ppm (Phytophthora infestans; [5])?
Answer: 28.3%

Question: For `N=C(N)NCCCCCCCCNCCCCCCCCNC(=N)N` [Iminoctadine], which “Test 2 Measured” value ([1]; component (b) alone, 20 ppm) is on record?
Answer: 79.5

Question: What about the “Test 2 Measured” value ([1]; component (b) alone, 100 ppm) of the same molecule?
Answer: 97

Question: And the “Test 2 Measured” value ([1]; component (b) alone, 500 ppm)?
Answer: 99

Question: And the “Test 1 Measured” value (Phytophthora infestans; component (b) alone, 20 ppm)?
Answer: 5

Question: And the “Test 1 Measured” value (Phytophthora infestans; component (b) alone, 100 ppm)?
Answer: 92.5

Question: And the “Test 1 Measured” value (Phytophthora infestans; component (b) alone, 500 ppm)?
Answer: 96.5

Question: `COc1cc(C)c(C(=O)c2c(OC)ncc(Cl)c2C)c(OC)c1OC` [Pyriofenone] was tested. Which “Test 2 Measured” value ([1]; component (b) alone 250 ppm) did it give?
Answer: 10

Question: And the “Test 2 Measured” value ([1]; component (b) alone, 10 ppm)?
Answer: 0

Question: What about the “Test 2 Measured” value ([1]; component (b) alone, 50 ppm) of the same molecule?
Answer: 5

Question: And the “Test 1 preventive value, Measured” value (Phytophthora infestans; 10 ppm)?
Answer: 0.0

Question: What about the “Test 1 preventive value, Measured” value (Phytophthora infestans; 50 ppm) of the same molecule?
Answer: 0.0

Question: What about the “Test 1 preventive value, Measured” value (Phytophthora infestans; 250 ppm) of the same molecule?
Answer: 0.0

Question: Which “Test 2 Measured” value ([1]; component (b) alone, 20 ppm) does the source give for Basic copper sulfate here?
Answer: 32

Question: And the “Test 2 Measured preventive value” ([1]; component (b) alone, 20 ppm)?
Answer: 18.8

Question: And the “Test 2 Measured” value ([1]; component (b) alone, 100 ppm)?
Answer: 80.9

Question: What about the “Test 2 Measured preventive value” ([1]; component (b) alone, 100 ppm) of the same molecule?
Answer: 82

Question: What about the “Test 2 Measured” value ([1]; component (b) alone, 500 ppm) of the same molecule?
Answer: 95

Question: And the “Test 2 Measured preventive value” ([1]; component (b) alone, 500 ppm)?
Answer: 97

Question: And the “Test 1 Measured” value (Phytophthora infestans; component (b) alone, 20 ppm)?
Answer: 55

Question: What about the “Test 1 Measured preventive value” (Phytophthora infestans; component (b) alone, 20 ppm) of the same molecule?
Answer: 71.7

Question: And the “Test 1 Measured” value (Phytophthora infestans; component (b) alone, 100 ppm)?
Answer: 90.7

Question: And the “Test 1 Measured preventive value” (Phytophthora infestans; component (b) alone, 100 ppm)?
Answer: 92.5

Question: And the “Test 1 Measured” value (Phytophthora infestans; component (b) alone, 500 ppm)?
Answer: 100

Question: And the “Test 1 Measured preventive value” (Phytophthora infestans; component (b) alone, 500 ppm)?
Answer: 100

Question: `CCNC(=O)NC(=O)/C(C#N)=N/OC` [Cymoxanil] was tested. Which “Test 2 Measured preventive value” ([1]; component (b) alone, 2 ppm) did it give?
Answer: 0

Question: And the “Test 2 Measured preventive value” ([1]; component (b) alone, 10 ppm)?
Answer: 0

Question: What about the “Test 2 Measured preventive value” ([1]; component (b) alone, 50 ppm) of the same molecule?
Answer: 46.3

Question: And the pest or weed control at 2 ppm (Phytophthora infestans; Phytophthora infestans, in Solanum lycopersicum, read-out: Test 1 Measured preventive value, component (b) alone, 2 ppm)?
Answer: 31.7%

Question: And the pest or weed control at 10 ppm (Phytophthora infestans; Phytophthora infestans, in Solanum lycopersicum, read-out: Test 1 Measured preventive value, component (b) alone, 10 ppm)?
Answer: 78.3%

Question: And the pest or weed control at 50 ppm (Phytophthora infestans; Phytophthora infestans, in Solanum lycopersicum, read-out: Test 1 Measured preventive value, component (b) alone, 50 ppm)?
Answer: 100%

Question: Which results are given for `Cc1cc(C(F)(F)F)nn1CC(=O)N1CCC(c2nc(C3OCc4cccc(OS(C)(=O)=O)c4CO3)cs2)CC1` (centres unmarked) [Compound 1-6, 4-[4-(6-methylsulfonyloxy-1,5-dihydro-3H-2,4-benzodioxepin-3-yl)-2-thiazolyl]-1-[2-[5-methyl-3-(trifluoromethyl)-1H-pyrazol-1-yl]acetyl]piperidine]?
Answer: Test 2 Measured preventive value ([1]; Compound 1-6 alone 0.06 ppm, average of three repeats): 5; Test 2 Measured preventive value ([1]; Compound 1-6 alone 0.3 ppm, average of three repeats): 93.8; Test 2 Measured preventive value ([1]; Compound alone, 0.3 ppm): 69.58 and 96.3; pest or weed control at 0.3 ppm ([1]; Pseudoperonospora cubensis, Compound alone 0.3 ppm, read-out: Test 2 Measured): 98.5%; pest or weed control at 0.06 ppm ([1]; Pseudoperonospora cubensis, applied alone, 0.06 ppm, read-out: Test 2 preventive value, Measured): 40%; pest or weed control at 0.3 ppm ([1]; Pseudoperonospora cubensis, applied alone, 0.3 ppm, read-out: Test 2 preventive value, Measured): 98%; pest or weed control at 0.06 ppm (Phytophthora infestans; Phytophthora infestans, in Solanum lycopersicum, read-out: Test 1 Measured preventive value, Compound 1-6 alone 0.06 ppm, average of three repeats): 25%; pest or weed control at 0.3 ppm (Phytophthora infestans; Phytophthora infestans, in Solanum lycopersicum, read-out: Test 1 Measured preventive value, Compound 1-6 alone 0.3 ppm, average of three repeats): 99.5%; pest or weed control at 0.3 ppm (Phytophthora infestans; Phytophthora infestans, in Solanum lycopersicum, read-out: Test 1 Measured preventive value, Compound alone, 0.3 ppm): 98.3%; pest or weed control at 0.3 ppm (Phytophthora infestans; Phytophthora infestans, in Solanum lycopersicum, read-out: Test 1 Measured, Compound alone 0.3 ppm): 98%; pest or weed control at 0.06 ppm (Phytophthora infestans; Phytophthora infestans, in Solanum lycopersicum, read-out: Test 1 preventive value, Measured, applied alone, 0.06 ppm): 68.3%; pest or weed control at 0.3 ppm (Phytophthora infestans; Phytophthora infestans, in Solanum lycopersicum, read-out: Test 1 preventive value, Measured, applied alone, 0.3 ppm): 97.7%

Question: With `CCO[PH](=O)O` [Fosetyl-aluminum] as the molecule, how does the “Test 2 Measured” value ([1]; component (b) alone 80 ppm) read?
Answer: 0

Question: What about the “Test 2 Measured” value ([1]; component (b) alone 400 ppm) of the same molecule?
Answer: 22.5

Question: What about the “Test 2 Measured” value ([1]; component (b) alone 2000 ppm) of the same molecule?
Answer: 49

Question: What about the “Test 1 Measured” value (Phytophthora infestans; component (b) alone 80 ppm) of the same molecule?
Answer: 31.7

Question: What about the “Test 1 Measured” value (Phytophthora infestans; component (b) alone 400 ppm) of the same molecule?
Answer: 85.7

Question: With `CCNc1nc(CC)c(C(=O)NC(C#N)c2cccs2)s1` (centres unmarked) [Ethaboxam] as the molecule, how does the “Test 2 Measured preventive value” ([1]; component (b) alone, 2 ppm) read?
Answer: 88.3

Question: What about the “Test 2 Measured preventive value” ([1]; component (b) alone, 10 ppm) of the same molecule?
Answer: 99.5

Question: And the “Test 2 Measured preventive value” ([1]; component (b) alone, 50 ppm)?
Answer: 100

Question: What about the “Test 1 Measured preventive value” (Phytophthora infestans; component (b) alone, 2 ppm) of the same molecule?
Answer: 95

Question: What about the “Test 1 Measured preventive value” (Phytophthora infestans; component (b) alone, 10 ppm) of the same molecule?
Answer: 98.3

Question: And the “Test 1 Measured preventive value” (Phytophthora infestans; component (b) alone, 50 ppm)?
Answer: 97.8

Question: For `Cc1cc(C2CC2)nc(Nc2ccccc2)n1` [Cyprodinil], which pest or weed control at 20 ppm ([1]; Pseudoperonospora cubensis, component (b) alone 20 ppm, read-out: Test 2 Measured) is on record?
Answer: 0%

Question: What about the pest or weed control at 100 ppm ([1]; Pseudoperonospora cubensis, component (b) alone 100 ppm, read-out: Test 2 Measured) of the same molecule?
Answer: 0%

Question: And the pest or weed control at 20 ppm (Phytophthora infestans; Phytophthora infestans, in Solanum lycopersicum, read-out: Test 1 Measured, component (b) alone 20 ppm)?
Answer: 0%

Question: What about the pest or weed control at 100 ppm (Phytophthora infestans; Phytophthora infestans, in Solanum lycopersicum, read-out: Test 1 Measured, component (b) alone 100 ppm) of the same molecule?
Answer: 0%

Question: What about the pest or weed control at 500 ppm (Phytophthora infestans; Phytophthora infestans, in Solanum lycopersicum, read-out: Test 1 Measured, component (b) alone 500 ppm) of the same molecule?
Answer: 0%
